One molecule from article PMC3249837 (ACS chemical neuroscience, 2011) can be followed below.

The test deals with PS1ΔE9. The test is classed as binding. The settings on record: competitor at 10 µM, probes at 200 nM.

SMILES strings stand for the structures.

`CC(C)CC[C@H](c1ccc(Cl)cc1)N1CC[C@@H](CC(=O)O)C[C@H]1c1ccc(C(F)(F)F)cc1` [Compound 1]: the “Competition of probe 4 and 5 labeling of PS1ΔE9 proteoliposomes” value was “blocked”.
